This is an account of results in patent US20260240872A1, “COMBINATION OF METFORMIN AND GLIBENCLAMIDE IN THE TREATMENT OF PARKINSON'S DISEASE” (CXS THERAPEUTICS, priority 2023, published 2026).

What all share (assay type): cell-based
Series [1] relates to rat primary dopaminergic neurons. The experiment in a line: Example 1: 6OH-DA injury on rat primary mesencephalic culture, neurite length (fitness) of dopaminergic neurons. The following applies: compound alone; as compared to Brain Derived Neurotrophic Factor; FIG. 2. The source says:
In these conditions, after 5 days of culture, astrocytes are present in the culture and release growth factor allowing neurons differentiation.

The test system is the same in series [2]. The series is described as follows: Example 2: 6-OHDA injury, protective protocol, length of TH positive neurites. The following applies: for neurites loss / protection of neurites from damages induced by 6-OHDA: one-hour pre-treatment, 6-OHDA 48 hours; for neurites loss: Plate 1, not significant; for protection of neurites from damages induced by 6-OHDA: compound alone, conclusion; for neurites loss (decrease of neurites length): 6-OHDA 20 μM, 48 hours; for neurites length: p<0.05. The method, then:
(§1) The total number and the neurites length of dopaminergic neurons was assessed.
(§2) Rat mesencephalic neurons were cultured as described by Schinelli et al., 1988. Briefly pregnant female rats of 15 days gestation were killed by cervical dislocation (Rats Wistar; Janvier Lab) and the fetuses removed from the uterus. The embryonic midbrains were removed and placed in ice-cold medium of Leibovitz 15 (L15; PanBiotech, Ref P04-27055, Batch: 1260323) containing 2% of Penicillin-Streptomycin (PS; PanBiotech, ref: P06-07100, Batch: 2585615) and 1% of bovine serum albumin (BSA; Sigma, Ref: 810533, Batch: 73). Only the ventral portions of the mesencephalic flexure were used for the cell preparation as this region of the developing brain is enriched in dopaminergic neurons. The midbrains were dissociated by […] for 20 minutes (min) at 37° C. (Trypsin EDTA 1×; PanBiotech, Ref: P10-023100, Batch: 8290223). The reaction was stopped by the addition of Dulbecco's modified Eagles medium (DMEM; PanBiotech, Ref: P04-03600, Batch: 6041222) containing Dnase | grade II (0.1 mg/ml; PanBiotech, Ref: P60-37780100, Batch: H210916) and 10% of fetal calf serum (FCS; Invitrogen, Ref: 10270106, Batch: 2534381). Cells were then mechanically dissociated by 3 passages through a 10 mL pipette. Cells were then centrifuged at 180×g for 10 min at +4° C. on a layer of BSA (3.5%) in L15 medium. The supernatant was discarded and the cell pellets were resuspended in a defined culture medium consisting of Neurobasal Plus (Gibco, Ref: A3582901, Batch: 2537248) supplemented with 2% of B27 Plus (Gibco, ref: A3582801, Batch: 2722550), L-glutamine (2 mM; PanBiotech, Ref: P04-80100, Batch: 7061121), 2% of PS, 10 ng/ml of BDNF PeproTech, Ref: 450-02, Batch: 092361) and 1 ng/ml of Glial Derived Neurotrophic factor (GDNF; PeproTech, Ref: 450-10, Batch: 012364). Viable cells were then counted in a Neubauer cytometer using the trypan blue exclusion test. The cells were seeded at a density of 40 000 cells/well in 96 well-plates coated with poly-L-Ornithine (Sigma, Ref: P4957, Batch: RNBL6953) and laminin (Sigma, Ref: L2020, Batch: 0000216258), and were cultured at 37° C. in a humidified air (95%)/CO2 (5%) atmosphere. Half of the medium was changed every 2 days with fresh medium. In these conditions, after 5 days of culture, astrocytes are present in the culture and release growth factor allowing neurons differentiation. In this condition, 2 to 5% of neurons are dopaminergic neurons.
(§3) Briefly, 6-OHDA (Sigma, Ref: H4381, Batch: MKCQ5002) was reconstituted in define culture medium at 40 μM (stock solution). The control medium was prepared in the same conditions. After 7 days of culture, primary mesencephalic neurons were pre-treated for 1 hour with test compounds or reference compound (BDNF, 50 ng/ml) and then intoxicated with 6-OHDA at a final concentration of 20 μM for 2 days incubation in order to induce a neuronal cell death of about 40%. The following conditions were done:
(§4) After 2 days of intoxication, cells were fixed by a solution of 4% paraformaldehyde (Alpha Aesar, ref J19943, Batch: 211457) for 20 min at room temperature, the control conditions were fixed as well following the same procedure. The cells were then permeabilized and non-specific sites were blocked with a solution of phosphate buffered saline (PBS; VWR; ref: L0615-500, Batch: MS01 MB) containing 0.1% of saponin (Sigma; ref: S7900, Batch: BCBL8667V) and 1% FCS for 15 min at room temperature. Cells were incubated with a rabbit polyclonal anti-Tyrosine Hydroxylase antibody (TH, 1/1000, Sigma, ref: AB152, Batch: 3870479) in a solution of PBS overnight at 4° C.
(§5) Nuclei of cells were labelled by a fluorescent marker (Hoechst, Sigma; ref: B1155, Batch: 046M4048V) in the same solution.
(§6) For each condition, 20 pictures per well were taken using InCell Analyzer™ 2200 (GE Healthcare) with 20× magnification. Images of each culture well were taken in same condition.

For series [3] the test system is unchanged. The experiment in a line: Example 2: 6-OHDA injury, protective protocol, total number of TH positive neurons (dopaminergic neurons survival). The following applies: for cellular death / protection of dopaminergic neurons from cell death induced by 6-OHDA: one-hour pre-treatment; for cellular death: 6-OHDA 20 μM 48 hours, Plate 1, not significant; for protection of dopaminergic neurons from cell death induced by 6-OHDA: compound alone, 6-OHDA 48 hours, conclusion; for cellular death (decrease of dopaminergic neurons survival): 48 hours; for dopaminergic neurons survival: BDNF 50 ng/ml + 6-OHDA 20 μM 48 hours. As to the method:
as §1, §2, §3, §4, §5, §6

Series [4] has the same test system. The series is described as follows: Example 1: 6OH-DA injury on rat primary mesencephalic culture, number of TH positive dopaminergic neurons (survival/viability). The following applies: FIG. 1.

In the case of `COc1ccc(Cl)cc1C(=O)NCCc1ccc(S(=O)(=O)NC(=O)NC2CCCCC2)cc1` [CXS002, Glibenclamide], in series [1], the “dopaminergic neuron fitness (neurite length) in 6OHDA intoxication” value is “did not improve dopaminergic neuron fitness”. The figures for the neurites loss in series [2] (compound alone at 1 μM), in series [2] (compound alone at 3 μM) and in series [2] (compound alone at 10 μM) were 58%, 57% and 47%, respectively. Moreover, in series [2], the “protection of neurites from damages induced by 6-OHDA” value is on record as “does not protect”. Besides, the figures for the cellular death in series [3] (compound alone at 1 μM), in series [3] (compound alone at 3 μM) and in series [3] (compound alone at 10 μM) were 58%, 57% and 47%, respectively. The “protection of dopaminergic neurons from cell death induced by 6-OHDA” value in series [3] was “does not protect”. Further, the neuron viability entry in series [4] (at high concentration, 6OHDA intoxication) is “seems to decrease neuron viability”. For the same molecule, in series [4] (compound alone, as compared to Brain Derived Neurotrophic Factor), the “dopaminergic neuron survival in 6OHDA intoxication” value is “did not improve dopaminergic neuron survival”.
`NCCc1cc(O)c(O)cc1O` [6-OHDA, 6-hydroxydopamine]: the “neurites loss (decrease of neurites length)” value in series [2] (Plate 1, FIG. 9, p<0.001) stood at 54%; in series [2] (Plate 2, FIG. 10, p<0.0001) it was 56%; in series [2] (Plate 3, FIG. 11, p<0.001), 45%. The “cellular death (decrease of dopaminergic neurons survival)” value in series [3] (20 μM, Plate 2, FIG. 7, p<0.0001) came out at 55%; in series [3] (6-OHDA 20 μM, Plate 1, FIG. 6, p<0.0001), 54%; in series [3] (6-OHDA 20 μM, Plate 3, FIG. 8, p<0.001), 46%.
On to `CN(C)C(=N)NC(=N)N` [CXS001, 1,1-dimethylbiguanide], for which the neurites loss in series [2] (compound alone at 1 μM) is on record as 38%; in series [2] (compound alone at 3 μM) it was 43%; in series [2] (compound alone at 10 μM), 55%. In addition, the “protection of neurites from damages induced by 6-OHDA” value in series [2] was “does not protect”. The results for the cellular death in series [3] (compound alone at 1 μM), in series [3] (compound alone at 3 μM) and in series [3] (compound alone at 10 μM) were 43%, 44% and 51%, respectively. The “protection of dopaminergic neurons from cell death induced by 6-OHDA” value in series [3] is “does not protect”.

B1: BDNF: Brain Derived Neurotrophic factor, used as reference compound (positive control) at 50 ng/ml (protein, UniProt P23560 19-247, looked up)
Neurotrophic factor BDNF …: APMKEANIRGQGGLAYPGVRTHGTLESVNGPKAGSRGLTSLADTFEHVIEELLDEDQKVRPNEENNKDADLYTSRVMLSSQVPLEPPLLFLLEEYKNYLDAANMSMRVRRHSDPARRGELSVCDSISEWVTAADKKTAVDMSGGTVTVLEKVPVSKGQLKQYFYETKCNPMGYTKEGCRGIDKRHWNSQCRTTQSYVRALTMDSKKRIGWRFIRIDTSCVCTLTIKRGR
Regarding B1, the neurites length in series [2] (BDNF 50 ng/mL + 6-OHDA 20 μM 48 hours, Plate 1, FIG. 9) is on record as 79 % of the control; in series [2] (BDNF 50 ng/ml + 6-OHDA 20 μM 48 hours, Plate 2, FIG. 10), 76 % of the control; in series [2] (BDNF 50 ng/ml + 6-OHDA 20 μM 48 hours, Plate 3, FIG. 11) it was 85 % of the control. For the same molecule, the dopaminergic neurons survival is given as 81 % of the control in series [3] (Plate 1, FIG. 6, p<0.05); 87 % of the control in series [3] (Plate 2, FIG. 7, p<0.0001); 83 % of the control in series [3] (Plate 3, FIG. 8, p<0.05).
